Source: patent EP0652009A1, “Identification and use of protease inhibitors” (ELI LILLY AND COMPANY, priority 1993, dated 1995)
Non-standard residues stand in square brackets, D forms with d. Residues, ends and D or L forms follow the SMILES beside them. Sta = CC(C)C[C@H](N)[C@@H](O)CC(=O)O; N(iPr)Gly = CC(C)NCC(=O)O

Legend:
Human liver cathepsin D = Human liver cathepsin D (Homo sapiens, UniProt P07339); experiment: Assay 2: cathepsin D inhibition activity (non-cellular fluorometric assay); type: biochemical; set-up: Human liver cathepsin D (Athens Research and Technology, Athens, GA); purchased Athens Research and Technology, Athens, GA; details: compound at 10 µg/mL; percent inhibition of control activity; mean and standard deviation of at least four replicate assays
Sequence of Human liver cathepsin D (P07339 169-412 limits assumed): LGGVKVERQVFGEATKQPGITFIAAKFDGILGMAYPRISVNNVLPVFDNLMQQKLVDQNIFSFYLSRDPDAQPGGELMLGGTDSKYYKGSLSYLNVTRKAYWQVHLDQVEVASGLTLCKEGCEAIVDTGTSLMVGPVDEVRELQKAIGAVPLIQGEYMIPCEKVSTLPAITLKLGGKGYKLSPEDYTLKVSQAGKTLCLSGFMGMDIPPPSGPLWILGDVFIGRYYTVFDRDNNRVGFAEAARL
Sequence of Human liver cathepsin D (P07339 65-162 limits assumed): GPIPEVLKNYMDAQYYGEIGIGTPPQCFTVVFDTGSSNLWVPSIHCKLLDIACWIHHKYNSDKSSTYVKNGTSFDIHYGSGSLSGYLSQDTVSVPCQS
Description: A second non-cellular assay for determining in vitro aspartyl protease inhibitory activity utilizes a microtiter plate, where a suitable aspartyl protease, such as cathepsin D is added to each well together with controls. A suitable fluorometric substrate is added to each well. The resultant reaction mixture is allowed to react for a preselected time, e.g., 30 minutes. After enzyme activity is terminated, the substrate or its product may be determined fluorometrically and then the protease inhibition activity may be calculated based on the rates of substrate turnover. This assay is exemplified in Assay 2, below.
A fluorometric assay was adapted from the method disclosed by Murakami et al., (1981) Anal. Biochem. 110:232-239 for measuring renin activity. Human liver cathepsin D (Athens Research and Technology, Athens, GA) was diluted in assay buffer, 200mM NaOAc, pH 4.5, 150mM NaCl to 500 ng/mL and then 100 µL of this cathepsin D solution was added to each well of a 96 well plate with the exception of control wells which received just 100 µL of assay buffer. Compound stocks were prepared by dissolving an aspartyl protease inhibitor in DMSO for each concentration tested in the assay and then 5 µL of compound stock was added to each of the wells prepared above. Blank and enzyme control wells each received 5 µL of the DMSO vehicle.
Following a ten minute incubation at 25°C to allow enzyme/compound interaction, 5 µL of 500µM fluorometric substrate (Suc-Arg-Pro-Phe-His-Leu-Leu-Val-Try-AMC [SEQ ID NO:4], Bachem Biosciences, Philadelphia, PA) in DMSO was added per well to initiate the reaction. After incubation at 37°C for 30 minutes, cathepsin D activity was terminated by the addition of 100 µL per well of 400 mU/mL microsomal leucine aminopeptidase (EC 3.4.11.2, Sigma, St. Louis, MO) in 1M Tris-HCl, pH 8.0.
The plates were then analyzed in a fluorometer (CytoFluor 2350, Millipore, Bedford, MA) with an excitation wavelength of 360nm and an emission wavelength of 460nm, in order to check for background fluorescence due to test compounds. Following a two hour incubation at 37°C, to allow the aminopeptidase to release the fluorophore, 7-amido-4-methylcoumarin (AMC) from the products of cathepsin D cleavage, the plates were again analyzed in the fluorometer. In order to check for potential false positives, i.e., inhibitors of microsomal leucine aminopeptidase, residual aminopeptidase activity was monitored directly in each well by the addition of 20 µL/well of 2.5mM Leu-pNA (Bachem Biosciences, Philadelphia, PA) in 10% DMSO. Aminopeptidase activity was measured as an increase in the absorbance at 405nm in a UVmax microplate reader (Molecular Devices, Menlo Park, CA).
The compounds prepared in Examples 9, 12, 13, 20-23, 23A, 24, 30, 41-43, 45, and 48 were assayed at 10 µg/mL for cathepsin D inhibition activity using Assay 2. Cathepsin D activity was linear under these conditions and the results are expressed as percent inhibition of the control activity in Assay Table 2, below. All results presented are the mean and standard deviation of at least four replicate assays. Assay Table 2

βAP production = experiment: Assay 4: βAP production inhibition (cellular assay, ELISA of conditioned media, normalised to MTT); type: cell-based, human; Chinese hamster; details: compound at 10 µg/mL; 293 751 SWE and CHO 751 SWE cells (table does not say which); βAP ELISA divided by MTT result, relative to drug-free control; mean and standard deviation of at least six replicate assays
Text: The test system used to measure the βAP production inhibition activity is typically a cellular assay or an animal model. Preferably, the βAP production inhibition activity is obtained by direct measurement of βAP production in a cellular assay, as described in WO9410569, the full disclosure of which is incorporated herein by reference. This assay is exemplified in Assay 4, below.
Two cell lines (human kidney cell line 293 and Chinese hamster ovary cell line CHO) were stably transfected with the gene for APP-751 containing the double mutation Lys₆₅₁-Met₆₅₂ to Asn₆₅₁-Leu₆₅₂ (APP-751 numbering) commonly called the Swedish mutation using the method described in Citron et al., (1992) Nature 360:672-674. The transfected cell lines were designated as 293 751 SWE and CHO 751 SWE, and were plated in Corning 96 well plates at 2.5x10⁴ or 1x10⁴ cells per well respectively in Dulbecco's minimal essential media plus 10% fetal bovine serum. Following overnight incubation at 37°C in an incubator equilibrated with 10% carbon dioxide (CO₂), the media were removed and replaced with 200 µL per well of media containing an aspartyl protease inhibitor. After a two hour pretreatment period, the media were again removed and replaced with fresh media containing the aspartyl protease inhibitor and the cells were incubated for an additional two hours.
After treatment, plates were centrifuged in a Beckman GPR at 1200 rpm for five minutes at room temperature to pellet cellular debris from the conditioned media. From each well, 100µL of conditioned media were transferred into an ELISA plate precoated with antibody 266 against βAP-13-28 (Seubert et al., supra.) and stored at 4°C overnight. An ELISA assay employing labelled antibody 6C6 (against βAP-1-16) was run the next day to measure the amount of βAP produced.
Cytotoxic effects of the compounds were measured by a modification of the method of Hansen et al., (1989) J. Immun. Meth. 119:203-210. To the cells remaining in the tissue culture plate, was added 25 µL of a 3,(4,5-dimethylthiazol-2-yl)2,5-diphenyltetrazolium bromide (MTT) stock solution (5 mg/mL) to a final concentration of 1 mg/mL. Cells were incubated at 37°C for one hour, and cellular activity was stopped by the addition of an equal volume of MTT lysis buffer (20% w/v sodium dodecylsulfate in 50% DMF, pH 4.7). Complete extraction was achieved by overnight shaking at room temperature. The difference in the OD562nm and the OD650nm was measured in a Molecular Devices UVmax microplate reader as an indicator of the cellular viability.
The results of the βAP ELISA were fit to a standard curve and expressed as ng/mL βAP peptide. In order to normalize for cytotoxicity, these βAP results were divided by the MTT results and expressed as a percentage of the results from a drug-free control.
The compounds prepared above in Examples 9, 12, 13, 20-23, 23A, 24, 30, 41-43, 45, and 48 were assayed for βAP production inhibition activity in cells at 10 µg/mL using Assay 4. The results presented in Assay Table 4, below, are the mean and standard deviation of at least six replicate assays. Assay Table 4

Human brain cathepsin D = target: T1, Human brain cathepsin D (Homo sapiens, UniProt P07339); experiment: Assay 1: cathepsin D inhibition activity (non-cellular assay, porcine renin tetradecapeptide substrate, RP-HPLC); type: biochemical; details: purified human brain cathepsin D, pH 4.5, 44 µM porcine renin tetradecapeptide, 37°C
T1 construct: Human brain cathepsin D was purified from frozen post-mortem cortex; from tissue; host or cells: human post-mortem brain cortex
T1 sequence (P07339 65-412): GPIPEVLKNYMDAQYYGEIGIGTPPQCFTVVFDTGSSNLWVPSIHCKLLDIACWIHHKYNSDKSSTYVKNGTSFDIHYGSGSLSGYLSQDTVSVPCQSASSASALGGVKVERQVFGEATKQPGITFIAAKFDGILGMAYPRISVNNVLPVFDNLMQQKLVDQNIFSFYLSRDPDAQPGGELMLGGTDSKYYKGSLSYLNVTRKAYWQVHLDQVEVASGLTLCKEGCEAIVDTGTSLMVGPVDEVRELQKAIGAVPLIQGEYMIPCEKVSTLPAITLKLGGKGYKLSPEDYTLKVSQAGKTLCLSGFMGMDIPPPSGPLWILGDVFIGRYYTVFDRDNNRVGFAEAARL
Description: An example of a non-cellular assay that may be used to determine in vitro aspartyl protease inhibitory activity reacts partially purified human brain cathepsin D with a substrate, e.g., porcine renin tetradecapeptide. The resultant reaction mixture is divided into portions and each portion is incubated for a different period of time. After the reaction is stopped, the turnover of substrate in each portion is determined using reverse-phase HPLC. Protease inhibition activity may be calculated based on the rates of substrate turnover. This assay is exemplified in Assay 1, below. Human brain cathepsin D was purified from frozen post-mortem cortex substantially in accordance with the method of Nixon and Morotta, (1984) J. Neurochem. 43:507-516. The cortex material was prepared and applied to a DEAE-Sepharose® column. The flow through fraction was dialyzed against 50mM Tris-HCl, pH 7.5, and applied to concanavalin A Sepharose® and eluted with 50mM Tris, pH 7.5, 0.5M methyl α-D-mannopyranoside. The eluted cathepsin D activity was dialyzed against 25mM Tris, pH 7.5, and stored at -40°C (Con A pool) until use. For each assay, 50 μL of the Con A pool was diluted to 270 μL in 200mM sodium citrate, pH 4.5, 150mM sodium chloride (NaCl), and incubated for 10 minutes at 4°C with 15 μL of compound stock diluted in dimethylsulfoxide (DMSO). The substrate, porcine renin tetradecapeptide ([…] [SEQ ID NO:3], Bachem Bioscience, Inc., Philadelphia, PA), was added to each reaction mixture to yield a final concentration of 44 μM in a total volume of 300 μL. The samples were incubated at 37°C for 0, 10, 20, or 30 minutes, and then boiled for 5 minutes to stop the reaction. The samples were centrifuged in a microcentrifuge for 10 minutes at 14,000 rpm at 4°C. After centrifugation, 200 μL of each reaction was injected onto […] column (Vydac, Hesperia, CA) with a Perkin Elmer ISS 100 autosampler and eluted with a gradient eluent of 0-50% CH3CN in 0.1% CF3CO2H at 2 mL/min. Peptide product peaks were monitored at 220nm with a Perkin Elmer LC 95 detector and integrated with Rainin Dynamax software in order to quantitate activity.

inhibition at 10 µg/mL (Human liver cathepsin D) [%]	IC50 (Human brain cathepsin D) [nM]	Compound	inhibition at 10 µg/mL (βAP production) [%]	other results
12.4 ± 3.7	–	CC(C)[C@H](NC(=O)c1cnc2ccccc2n1)C(=O)N[C@@H](Cc1ccccc1)[C@H](O)Cc1ccccc1C(=O)NC(C)(C)C [Example 12, [1S-(1R*,4R*,5S*)]-N-(1-Isopropyl-2-oxo-3-aza-4-phenylmethyl-5-hydroxy-6-(2-(1-t-butylamino-1-oxomethyl)phenyl)hexyl)-2-quinoxalinyl acetamide]	12.4 ± 6	–
91.4 ± 0.4	–	CC(C)[C@H](NC(=O)c1ccc2ccccc2c1)C(=O)N[C@@H](Cc1ccccc1)[C@H](O)Cc1ccccc1C(=O)NC(C)(C)C [Example 13]	91.4 ± 3.9	–
94.8 ± 0.6	–	CC(C)C[C@H](NC(=O)c1ccc2ccccc2n1)C(=O)N[C@@H](Cc1ccccc1)[C@H](O)Cc1ccccc1C(=O)NC(C)(C)C [Example 20, [1S-(1R*,4R*,5S*)]-N-(1-(2-Methylpropyl)-2-oxo-3-aza-4-phenylmethyl-5-hydroxy-6-(2-(1-t-butylamino-1-oxomethyl)phenyl)hexyl)-quinolin-2-yl carboxamide]	94.8 ± 3.1	–
–	> 100	CC[C@H](C)[C@H](NC(=O)C[C@H](O)[C@H](CC(C)C)NC(=O)CNC(C)C)C(=O)N[C@@H](C)C(=O)N[C@H](C(=O)O)[C@@H](C)O [Example 44, (CH3)2CH-Gly-Sta-Ile-Ala-Thr-OH] (H-[N(iPr)Gly][Sta]IAT-OH)	–	–
–	> 250	CC(C)C[C@H](NC(=O)[C@@H](NC(=O)CNC(C)C)C(C)C)[C@@H](O)CC(=O)N[C@@H](C)C(=O)N[C@H](C(=O)O)[C@@H](C)O [Example 46, (CH3)2CH-Gly-Val-Sta-Ala-Thr-OH] (H-[N(iPr)Gly]V[Sta]AT-OH)	–	–
–	> 250	CC[C@H](C)[C@H](NC(=O)[C@@H](NC(=O)[C@@H](NC(=O)CNC(C)C)C(C)C)C(C)C)C(=O)N[C@@H](CC(C)C)[C@@H](O)CC(=O)N[C@H](C(=O)O)[C@@H](C)O [Example 47, (CH3)2CH-Gly-Val-Val-Ile-Sta-Thr-OH] (H-[N(iPr)Gly]VVI[Sta]T-OH)	–	–
–	–	[1S-(1R*,4R*,5S*)]-N-(1-(Propyl)-2-oxo-3-aza-4-phenylmethyl-5-hydroxy-6-(2-(1-t-butylamino-1-oxomethyl)phenyl)hexyl)-quinolin-2-yl carboxamide [Example 21]	–	Cathepsin D Inhibition (Human liver cathepsin D): 78.3 ± 3.8%; βAP Production Inhibition (βAP production): 78.3 ± 1.5%

Compound	inhibition at 10 µg/mL (Human liver cathepsin D) [%]	IC50 (Human brain cathepsin D) [nM]	inhibition at 10 µg/mL (βAP production) [%]	other results
CC(C)[C@H](NC(=O)OC(C)(C)C)C(=O)N[C@@H](Cc1ccccc1)[C@H](O)Cc1ccccc1C(=O)NC(C)(C)C [Example 23A, [2R-(2R*,3S*,6S*)]-N-t-Butyl-2-[2-hydroxy-3-phenylmethyl-4-aza-5-oxo-6-N(t-butoxycarbonyl)amino-7-methyl]octyl benzamide]	32.5 ± 4.7	–	32.5 ± 3.3	–
